Values after ≈ are worked out from the molar mass of the structure shown. Where two headings read alike, the source gives them in different places.
Assays:
[1] = Solubility of isoflavone phosphate conjugates and aglycones in DI water (25° C.); type: physicochemical; conditions: for solubility relative to genistein and daidzein: 25° C. water, phosphate vs aglycone; for Solubility enhancement ratio: phosphate conjugate vs aglycone
Description: This can increase the application of isoflavones in pharmaceuticals, food, and cosmetics.

[2] = cited from earlier work; for solubility: in water, stated in text without method; for solubility in water (in words): qualitative statement (b7: according to Merck Index); for water solubility relative to aglyconic form of isoflavones: derivatives reported in several studies
[3] = DI water, 25° C., read-out: Water solubility

Compound | solubility [2] [µg/mL] | solubility in water (in words) [2] | water solubility relative to aglyconic form of isoflavones [2] | further results
O=c1c(-c2ccc(O)cc2)coc2cc(OP(=O)(O)O)cc(O)c12 [Genistein-7-O-phosphate, genistein-7-O-phosphate] |  |  |  | solubility relative to genistein and daidzein [1]: ten million times higher; solubility [1, 3]: 100000 µg/mL (≈ 286000 µM); Solubility enhancement ratio ([1]; DI water, 25° C.): 1.2 × 10^5
O=c1c(-c2ccc(O)cc2)coc2cc(O)ccc12 [Daidzein, daidzein] | 8.2 (≈ 32.3 µM) | practically insoluble in water |  | solubility ([1]; 25 °C, water): 1.36 µg/mL (≈ 5.35 µM)
O=c1c(-c2ccc(O)cc2)coc2cc(O)c(O)c(O)c12 [6-hydroxy genistein] |  |  | higher water solubility | 
O=c1c(-c2ccc(O)cc2)coc2cc(O)cc(O)c12 [Genistein, genistein] | 0.8 (≈ 2.96 µM) | practically insoluble in water |  | solubility [1, 3]: 0.82 µg/mL (≈ 3.03 µM)
O=c1c(-c2ccc(O)cc2)coc2cc(OS(=O)(=O)O)ccc12 [daidzein-7-O-sulfate] |  |  | higher water solubility | 
O=C1C[C@@H](c2ccc(O)cc2)Oc2cc(O)cc(O)c21 [Naringenin, naringenin] | 45 (≈ 165 µM) |  |  | 
O=c1c(O)c(-c2ccc(O)c(O)c2)oc2cc(O)cc(O)c12 [quercetin] |  | barely insoluble in water |  | 
O=c1c(-c2ccc(O)cc2O)coc2cc(O)cc(O)c12 [2′-hydroxy genistein] |  |  | higher water solubility | 
O=c1c(-c2ccc(O)cc2)coc2c(O)c(O)cc(O)c12 [8-hydroxy genistein] |  |  | higher water solubility | 
O=c1c(O)c(-c2ccc(O)cc2)oc2cc(O)cc(O)c12 [Kaempferol, kaempferol] |  | barely insoluble in water |  | 
O=c1c(-c2ccc(O)cc2)coc2cc(OP(=O)(O)O)ccc12 [Daidzein-7-O-phosphate, daidzein-7-O-phosphate] |  |  |  | solubility relative to genistein and daidzein [1]: ten million times higher; solubility [1, 3]: 179000 µg/mL (≈ 536000 µM); Solubility enhancement ratio ([1]; DI water, 25° C.): 1.3 × 10^5
COc1ccc([C@@H]2CC(=O)c3c(O)cc(O)cc3O2)cc1O [hesperetin] | 1.4 (≈ 4.63 µM) |  |  | 

Source: patent US10421768B2, “Method of biotransformation of benzopyrone compounds into the corresponding phosphate-conjugated derivatives” (National Taiwan University, priority 2016, dated 2019)
